Laboratory results as given in the supplement of paper PMC4858399.
Counter-ions that a name gives are not always drawn.

Tests used:
[1] = test system: Caenorhabditis elegans N2; experiment: mean nematode size ln(EXT) after 48 h, plate-adjusted (DMSO control set to 6) (ln(EXT), control-adjusted); higher = larger nematodes / less growth inhibition; details: exposure time 48 h
How it was run: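 In K-medium with killed OP50, 1% DMSO and 0.5–200 µM chemical, synchronised N2 L1 larvae of C. elegans (50 per well) grew for 48 h at 20°C. Extinction was read for every worm on the Biosort, with debris removed by a growth model. Natural-log values averaged per well gave mean size, which was corrected per plate by subtracting the vehicle control mean and adding 6.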

[2] = test system: Caenorhabditis elegans N2; experiment: lowest effective concentration for larval growth inhibition (size below effect threshold); higher = less potent; details: exposure time 48 h
How it was run: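 In 96-well plates, 50 C. elegans N2 L1 larvae per well were cultured at 20°C for 48 h in K-medium with killed bacteria and 1% DMSO, plus the chemical at 0.5, 1, 5, 10, 50, 100 or 200 µM. Size was measured as per-worm extinction on a Biosort and log-transformed into well means. Taking the first dose where the plate-adjusted mean size sits under 5.665 and stays there at higher doses gives the lowest effective concentration.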

Row | SMILES | mean nematode size ln(EXT) (ln) ([1]; 0.5 µM) | mean nematode size ln(EXT) (ln) ([1]; 1 µM) | mean nematode size ln(EXT) (ln) ([1]; 5 µM) | mean nematode size ln(EXT) (ln) ([1]; 10 µM) | mean nematode size ln(EXT) (ln) ([1]; 50 µM) | mean nematode size ln(EXT) (ln) ([1]; 100 µM) | mean nematode size ln(EXT) (ln) ([1]; 200 µM) | lowest effective concentration [2]
1 | CN(C)C(=S)S [Sodium dimethyldithiocarbamate] | 5.93 | 5.79 | 5.88 | 5.82 | 5.85 | 5.81 | 5.69 | > 200 µM
2 | O=C1O[C@H]([C@H](O)CO)C([O-])=C1O.[Na+] [Sodium erythorbate] | 5.96 | 5.89 | 5.94 | 5.98 | 6 | 5.9 | 5.68 | > 200 µM
3 | O=NO [Sodium nitrite] | 6 | 6.02 | 6.05 | 6.03 | 6.08 | 6.04 | 5.75 | > 200 µM
4 | O=[N+]([O-])c1ccc(O)cc1 [Sodium p-nitrophenolate] | 5.95 | 5.97 | 5.92 | 5.98 | 6.15 | 5.81 | 5.87 | > 200 µM
5 | Cc1ccc(S(=O)(=O)O)cc1C [Sodium xylenesulfonate] | 5.89 | 5.95 | 5.92 | 5.82 | 5.89 | 5.8 | 5.72 | > 200 µM
6 | C/C=C/C=C/C(=O)O [Sorbic acid] | 5.84 | 5.83 | 5.82 | 5.95 | 5.89 | 5.86 | 5.7 | > 200 µM
7 | Cc1cn([C@H]2C=C[C@@H](CO)O2)c(=O)[nH]c1=O [Stavudine] | 5.47 | 5.53 | 5.6 | 5.67 | 5.69 | 5.7 | 5.93 | > 200 µM
8 | CCCCCCCCCCCCCCCCCC(=O)O [Stearic acid] | 6.02 | 5.96 | 6.03 | 5.96 | 5.87 | 5.85 | 5.91 | > 200 µM
9 | c1ccc(C2CO2)cc1 (stereo not given) [Styrene oxide] | 6.05 | 6.04 | 6.03 | 6.01 | 6.03 | 6.03 | 5.89 | > 200 µM
10 | CC(=O)OC[C@H]1O[C@@](COC(C)=O)(O[C@H]2O[C@H](COC(C)=O)[C@@H](OC(C)=O)[C@H](OC(C)=O)[C@H]2OC(C)=O)[C@@H](OC(C)=O)[C@@H]1OC(C)=O [Sucrose octaacetate] | 5.78 | 5.75 | 5.76 | 5.75 | 5.72 | 5.75 | 5.73 | > 200 µM
11 | OC[C@H]1O[C@@](CO)(O[C@H]2O[C@H](CO)[C@@H](O)[C@H](O)[C@H]2O)[C@@H](O)[C@@H]1O [Sucrose] | 6.01 | 5.97 | 6.04 | 5.98 | 5.84 | 5.87 | 5.82 | > 200 µM
12 | Oc1ccc2ccccc2c1N=Nc1ccccc1 [Sudan I] | 5.91 | 5.88 | 5.87 | 5.83 | 5.7 | 5.77 | 5.68 | > 200 µM
13 | O=C(O)c1cc(/N=N/c2ccc(S(=O)(=O)Nc3ccccn3)cc2)ccc1O [Sulfasalazine] | 5.85 | 5.91 | 5.87 | 5.87 | 5.92 | 5.9 | 5.94 | > 200 µM
14 | O=c1n(Cl)c(=O)n(Cl)c(=O)n1Cl [Symclosene] | 5.9 | 5.76 | 5.62 | 5.82 | 5.73 | 5.69 | 5.74 | > 200 µM
15 | O=C(O)C1=NN(c2ccc(S(=O)(=O)O)cc2)C(=O)C1N=Nc1ccc(S(=O)(=O)O)cc1 (stereo not given) [Tartrazine] | 6.02 | 5.96 | 5.97 | 5.98 | 6.03 | 5.85 | 5.92 | > 200 µM
16 | O=C1CCC(N2C(=O)c3ccccc3C2=O)C(=O)N1 (stereo not given) [Thalidomide] | 5.98 | 5.95 | 5.98 | 5.97 | 5.97 | 5.85 | 5.97 | > 200 µM
17 | Cn1cnc2c1c(=O)[nH]c(=O)n2C [Theobromine] | 5.83 | 5.87 | 5.98 | 6.03 | 5.87 | 5.86 | 5.83 | > 200 µM
18 | N#C/N=C1\SCCN1Cc1ccc(Cl)nc1 [Thiacloprid] | 5.99 | 5.88 | 5.94 | 5.96 | 5.96 | 5.89 | 5.81 | > 200 µM
19 | CN1COCN(Cc2cnc(Cl)s2)/C1=N\[N+](=O)[O-] [Thiamethoxam] | 5.81 | 5.7 | 5.73 | 5.88 | 5.8 | 5.88 | 5.91 | > 200 µM
20 | Cc1ccc(C(C)C)c(O)c1 [Thymol] | 5.92 | 5.82 | 5.66 | 5.65 | 5.67 | 5.51 | 5.72 | > 200 µM

Row | SMILES | mean nematode size ln(EXT) (ln) ([1]; 0.5 µM) | mean nematode size ln(EXT) (ln) ([1]; 1 µM) | mean nematode size ln(EXT) (ln) ([1]; 5 µM) | mean nematode size ln(EXT) (ln) ([1]; 10 µM) | mean nematode size ln(EXT) (ln) ([1]; 50 µM) | mean nematode size ln(EXT) (ln) ([1]; 100 µM) | mean nematode size ln(EXT) (ln) ([1]; 200 µM) | lowest effective concentration [2]
21 | Cc1ccc(S(=O)(=O)NC(=O)NN2CCCCCC2)cc1 [Tolazamide] | 5.93 | 5.92 | 5.93 | 5.91 | 5.61 | 5.87 | 5.79 | > 200 µM
22 | Cc1ccc(N=C=O)cc1N=C=O [Toluene-2,4-diisocyanate] | 5.73 | 5.8 | 5.73 | 5.78 | 5.7 | 5.61 | 5.67 | > 200 µM
23 | CCCCC(CC)C(=O)OCCOCCOCCOC(=O)C(CC)CCCC (stereo not given) [Tri(ethylene glycol) bis(2-ethylhexanoate)] | 5.84 | 5.86 | 6 | 5.97 | 5.86 | 5.84 | 5.79 | > 200 µM
24 | CC(=O)OCC(COC(C)=O)OC(C)=O [Triacetin] | 5.85 | 5.99 | 5.89 | 5.85 | 5.97 | 5.78 | 5.73 | > 200 µM
25 | C[C@]12C=CC(=O)C=C1CC[C@H]1[C@@H]3C[C@@H](O)[C@](O)(C(=O)CO)[C@@]3(C)C[C@H](O)[C@@]12F [Triamcinolone] | 5.9 | 5.86 | 5.87 | 5.87 | 5.92 | 5.86 | 5.79 | > 200 µM
26 | CCCCN(CCCC)CCCC [Tributylamine] | 5.91 | 6 | 5.98 | 6.1 | 5.96 | 5.92 | 5.8 | > 200 µM
27 | O=C(O)C(Cl)(Cl)Cl [Trichloroacetic acid] | 5.84 | 5.85 | 5.86 | 5.91 | 5.89 | 5.91 | 5.67 | > 200 µM
28 | OCCN(CCO)CCO [Triethanolamine] | 5.65 | 5.64 | 5.71 | 5.66 | 5.09 | 5.38 | 5.69 | > 200 µM
29 | CCOC(=O)CC(O)(CC(=O)OCC)C(=O)OCC [Triethyl citrate] | 6.01 | 5.99 | 6.04 | 6.03 | 6.03 | 6.08 | 5.71 | > 200 µM
30 | CC(=O)OCCOCCOCCOC(C)=O [Triethylene Glycol Diacetate] | 5.82 | 5.87 | 5.88 | 5.91 | 5.83 | 5.96 | 5.82 | > 200 µM
31 | OCCOCCOCCO [Triethylene glycol] | 5.84 | 5.84 | 5.95 | 5.98 | 5.88 | 5.87 | 5.84 | > 200 µM
32 | CC(C)CCCCCCOC(=O)c1ccc(C(=O)OCCCCCCC(C)C)c(C(=O)OCCCCCCC(C)C)c1 [Triisononyl Trimellitate] | 5.94 | 5.89 | 5.94 | 5.86 | 5.81 | 5.73 | 5.68 | > 200 µM
33 | c1ccc(OP(Oc2ccccc2)Oc2ccccc2)cc1 [Triphenyl phosphite] | 5.86 | 5.75 | 5.77 | 5.81 | 5.75 | 5.95 | 5.72 | > 200 µM
34 | COCC(C)OCC(C)OCC(C)O (stereo not given) [Tripropylene glycol monomethyl ether] | 5.71 | 6.01 | 5.88 | 5.89 | 5.91 | 5.9 | 5.72 | > 200 µM
35 | O=P(OCCCl)(OCCCl)OCCCl [Tris(2-chloroethyl) phosphate] | 5.87 | 5.82 | 5.89 | 5.86 | 5.86 | 5.87 | 5.77 | > 200 µM
36 | CCCCC(CC)COP(=O)(OCC(CC)CCCC)OCC(CC)CCCC (stereo not given) [Tris(2-ethylhexyl) phosphate] | 5.94 | 5.99 | 5.94 | 5.96 | 5.92 | 5.34 | 5.78 | > 200 µM
37 | O=[N+]([O-])C(CO)(CO)CO [Tris(hydroxymethyl)nitromethane] | 5.91 | 5.9 | 5.92 | 5.75 | 5.92 | 5.89 | 5.75 | > 200 µM
38 | NC(N)=O [Urea] | 5.83 | 5.73 | 5.79 | 5.7 | 5.77 | 5.86 | 5.74 | > 200 µM
39 | CCOC(N)=O [Urethane (ethyl carbamate)] | 5.96 | 5.93 | 5.97 | 6 | 5.95 | 5.91 | 5.97 | > 200 µM
40 | CCCC(CCC)C(=O)O [Valproic Acid] | 5.81 | 5.92 | 6.12 | 6.03 | 6.06 | 6.03 | 5.91 | > 200 µM
